Columns and labels:
[1] = molecular target: T1, Metallo-beta-lactamase VIM-2 [21-266] (Klebsiella pneumoniae, UniProt Q3Y6Q3); experiment: Enzyme Inhibition Assay
T1 construct: 21-266
Protocol: (§1) Freshly prepared Zn2-NDM-1 (50 nM) or Zn2-VIM-2 were first incubated with various concentrations of Bi(III) compounds for 1 h at 25° C. The assay was performed in a 1 cm quartz cuvette using the kinetic mode of Varian Cary 50 UV-visible spectrophotometer at 25° C. The final assay buffer contains 50 mM HEPES/Na pH 7.0, 100 mM NaCl and 100 μM MER. The decrease in absorbance at 300 nm due to ring-opening of MER was monitored every second for a duration of 10 mins until the reaction was completed. The initial rate were extracted and calculated from each reaction curves.

[2] = molecular target: T2, Metallo-beta-lactamase type 2 [29-270] (Klebsiella pneumoniae, UniProt C7C422); experiment: Enzyme Inhibition Assay
T2 construct: 29-270
T2 sequence (C7C422 29-270): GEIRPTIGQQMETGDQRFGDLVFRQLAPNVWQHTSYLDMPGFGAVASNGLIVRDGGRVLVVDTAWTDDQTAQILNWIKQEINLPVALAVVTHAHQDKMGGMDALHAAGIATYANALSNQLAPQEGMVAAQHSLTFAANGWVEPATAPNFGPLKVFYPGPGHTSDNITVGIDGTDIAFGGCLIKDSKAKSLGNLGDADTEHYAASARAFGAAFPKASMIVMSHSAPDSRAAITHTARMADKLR
Protocol: as §1

Compound | IC50 [1] [µM] | IC50 [2] [µM]
O=C(O)C[C@@](O)(CC(O)O)C(=O)O [US10624871, Compound 10] | 44.5 | 5.83
[Bi+3] [US10624871, Compound Bi(NO3)3] | 2.45 | 1.89
CC(=O)N[C@@H](CS)C(=O)O [US10624871, Compound 21] |  | 17.7
C[C@H](CS)C(=O)N1CCC[C@H]1C(=O)O [US10624871, Compound 15] | 6.17 | 

Source: BindingDB's records for patent US10624871 (The University of Hong Kong, 2020)
